Experiment: Measurement of concentration of molecules dissolved in the continuous phase of the standard AuNP@MUA colloid (centrifugation, RP-HPLC with UV-visible detection)
Assay type: physicochemical
Details: n=3; for concentration in the control samples, equivalent to the continuous phase of the colloid: control samples: particle-free solution extracted from the colloid, 2.00 μM molecule added; for concentration of molecules dissolved in the continuous phase of the standard AuNP@MUA colloid: test samples, after incorporating 2.00 μM of the molecule into the colloid, centrifuged 24,000×g 15 min, average
Method: In general terms, the concentration of molecules dissolved in a fraction of the particle free colloid is measured. To evaluate this, in a first part the method obtains a test sample and a control sample. The test sample contains molecules dissolved in a colloid, and the control sample contains the same concentration of molecules dissolved in a particle-free solution extracted from the same colloid used to obtain the test sample. […] Subsequently, the samples are exposed to a condition that allows the particles of the test sample to be concentrated. […] Then, a particle-free volume is recovered from the test sample. The fraction recovered is equivalent to the continuous phase of the colloid and includes the effect of the interaction between molecules and particles. Finally, the concentration of molecules dissolved in the continuous phase of the colloid is measured using equation 1:
[formula] where [FC] corresponds to the concentration of molecules dissolved in the continuous phase of a colloid, [ ]0 corresponds to the value of the concentration of molecules used during the sampling steps, @mp corresponds to the empirical value of a parameter proportional to the number of molecules contained in a volume of particle-free test sample, and @mc corresponds to the empirical value of the same parameter proportional to the number of molecules contained in a volume of control sample. The concentration value obtained from this equation is equivalent to the concentration of molecules dissolved in the continuous phase of the colloid. […]
[formula] • where [FC] corresponds to the concentration of molecules dissolved in the continuous phase of a colloid, [ ]0 corresponds to the value of the concentration of molecules used during the sampling steps, @mp corresponds to the empirical value of a parameter proportional to the number of molecules contained in a volume of particle-free test sample obtained in step f), and @mc corresponds to the empirical value of the same parameter, but measured in the control sample obtained in step g).

| SMILES | concentration in the control samples, equivalent to the continuous phase of the colloid [nM] | concentration of molecules dissolved in the continuous phase of the standard AuNP@MUA colloid [nM] |
| --- | --- | --- |
| CN(C)c1ccc(N=Nc2ccc(S(=O)(=O)[O-])cc2)cc1.[Na+] [methyl orange] | 2000 | 2000 |
| CN(C)c1ccc2nc3ccc(=[N+](C)C)cc-3sc2c1 [methylene blue] | 2000 | 1170 |

Source: patent US11680885B2, “Method, process, composition and kit for measuring concentration of molecules dissolved in the continuous phase of a colloid” (UNIVERSIDAD TÉCNICA FEDERICO SANTA MARÍA, priority 2017, dated 2023)
